4 compounds from ChEMBL document CHEMBL5233206, “An overview on the synthesis of carbohydrate-based molecules with biological activity related to neurodegenerative diseases” (RSC Med Chem, 2021) can be followed below.

The target in data set [1] is T1, Cholinesterase (Homo sapiens, UniProt P06276). Nature of the data set: Binding affinity to BuChE (unknown origin) assessed as inhibition constant incubated for 20 mins by absorbance based analysis.
The target of data set [2] is Acetylcholinesterase (Homo sapiens, UniProt P22303). Put plainly: Inhibition of AChE (unknown origin) at 50 uM incubated for 20 mins by absorbance based analysis relative to control.
Chain of Acetylcholinesterase (Homo sapiens, UniProt P22303) (P22303 whole entry): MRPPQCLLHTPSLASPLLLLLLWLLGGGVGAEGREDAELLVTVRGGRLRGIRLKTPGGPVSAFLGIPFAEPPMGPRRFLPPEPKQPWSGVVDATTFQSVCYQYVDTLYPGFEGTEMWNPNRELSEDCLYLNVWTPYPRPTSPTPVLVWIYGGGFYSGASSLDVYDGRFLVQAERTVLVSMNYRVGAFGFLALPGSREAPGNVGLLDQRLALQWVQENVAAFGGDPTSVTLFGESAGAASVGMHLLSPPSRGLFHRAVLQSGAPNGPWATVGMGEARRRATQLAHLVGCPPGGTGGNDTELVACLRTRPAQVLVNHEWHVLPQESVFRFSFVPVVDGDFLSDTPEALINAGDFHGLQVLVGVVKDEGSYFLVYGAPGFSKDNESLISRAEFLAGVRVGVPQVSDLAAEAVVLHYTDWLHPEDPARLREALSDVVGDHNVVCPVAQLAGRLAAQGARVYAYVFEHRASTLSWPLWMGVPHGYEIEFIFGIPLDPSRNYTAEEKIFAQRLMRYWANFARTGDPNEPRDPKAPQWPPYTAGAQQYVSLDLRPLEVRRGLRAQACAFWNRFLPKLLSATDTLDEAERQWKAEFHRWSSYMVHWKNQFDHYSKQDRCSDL
Data set [3] concerns the target T1, Cholinesterase. Put plainly: Inhibition of BuChE (unknown origin) at 50 uM incubated for 20 mins by absorbance based analysis relative to control.
Data set [4] concerns the target Acetylcholinesterase (Electrophorus electricus, UniProt O42275). Put plainly: Inhibition of electrical eel AChE by ellman's method. Background: Ellman's reagent forms a yellow product with free thiols.
The species named for a further data set is Homo sapiens. Put plainly: Selectivity ratio of IC50 for AChE (unknown origin) to IC50 for BuChE (unknown origin).
Data set [5] concerns the target T1, Cholinesterase. Put plainly: Binding affinity to BuChE (unknown origin) assessed as inhibition constant by ellman's method.
Data set [6] is described as follows: Lipophilicity, logP of the compound. It is filed as physicochemical. The conditions noted are these: octanol/water.
Data set [7] deals with Cholinesterase (Equus caballus, UniProt P81908).
Chain of Cholinesterase (Equus caballus, UniProt P81908) (P81908 whole entry): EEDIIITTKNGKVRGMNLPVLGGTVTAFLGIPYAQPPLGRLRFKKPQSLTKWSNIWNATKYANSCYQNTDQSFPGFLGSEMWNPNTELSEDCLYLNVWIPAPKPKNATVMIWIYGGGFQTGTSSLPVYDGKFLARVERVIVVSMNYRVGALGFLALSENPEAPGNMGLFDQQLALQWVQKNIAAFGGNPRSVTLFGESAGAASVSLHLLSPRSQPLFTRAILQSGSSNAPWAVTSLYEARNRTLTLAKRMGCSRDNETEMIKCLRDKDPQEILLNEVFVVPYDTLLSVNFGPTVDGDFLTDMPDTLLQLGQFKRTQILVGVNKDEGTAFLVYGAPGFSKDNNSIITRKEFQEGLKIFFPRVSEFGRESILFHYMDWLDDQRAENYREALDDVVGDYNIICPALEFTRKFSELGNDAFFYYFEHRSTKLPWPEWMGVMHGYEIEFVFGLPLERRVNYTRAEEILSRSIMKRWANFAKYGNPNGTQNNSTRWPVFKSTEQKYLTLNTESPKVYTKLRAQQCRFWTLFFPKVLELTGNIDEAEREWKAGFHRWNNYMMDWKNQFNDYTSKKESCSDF
Description: Inhibition of equine serum BuChE by ellman's method
Data set [8] in a line: Antioxidant activity assessed as ABTS radical scavenging activity. It is filed as functional.

In general, Ki refers to the equilibrium dissociation constant of an inhibitor or competing ligand from its target. The term inhibition denotes the drop in the measured response relative to a control, in per cent. A low value points to a response near the control. One may read the IC50 as the point on the concentration scale where inhibition reaches its midpoint. As usually defined, the logP is a log measure of how a compound divides between an organic and an aqueous phase.

T1 sequence (P06276 whole entry): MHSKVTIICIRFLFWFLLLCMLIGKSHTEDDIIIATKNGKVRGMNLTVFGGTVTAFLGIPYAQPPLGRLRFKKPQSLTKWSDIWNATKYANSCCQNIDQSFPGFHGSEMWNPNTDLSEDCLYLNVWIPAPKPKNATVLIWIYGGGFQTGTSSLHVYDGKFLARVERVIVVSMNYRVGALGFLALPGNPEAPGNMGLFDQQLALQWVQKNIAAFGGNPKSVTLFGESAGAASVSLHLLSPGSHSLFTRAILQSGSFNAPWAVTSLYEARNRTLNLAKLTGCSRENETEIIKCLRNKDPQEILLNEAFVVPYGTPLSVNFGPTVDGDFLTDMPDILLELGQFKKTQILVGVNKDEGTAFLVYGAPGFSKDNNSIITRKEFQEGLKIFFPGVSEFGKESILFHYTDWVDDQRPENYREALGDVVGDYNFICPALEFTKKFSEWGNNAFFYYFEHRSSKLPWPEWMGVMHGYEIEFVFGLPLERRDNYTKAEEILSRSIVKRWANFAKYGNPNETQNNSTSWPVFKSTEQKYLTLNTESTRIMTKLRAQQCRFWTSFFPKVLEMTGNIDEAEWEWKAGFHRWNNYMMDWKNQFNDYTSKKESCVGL
Chain of Acetylcholinesterase (Electrophorus electricus, UniProt O42275) (O42275 whole entry): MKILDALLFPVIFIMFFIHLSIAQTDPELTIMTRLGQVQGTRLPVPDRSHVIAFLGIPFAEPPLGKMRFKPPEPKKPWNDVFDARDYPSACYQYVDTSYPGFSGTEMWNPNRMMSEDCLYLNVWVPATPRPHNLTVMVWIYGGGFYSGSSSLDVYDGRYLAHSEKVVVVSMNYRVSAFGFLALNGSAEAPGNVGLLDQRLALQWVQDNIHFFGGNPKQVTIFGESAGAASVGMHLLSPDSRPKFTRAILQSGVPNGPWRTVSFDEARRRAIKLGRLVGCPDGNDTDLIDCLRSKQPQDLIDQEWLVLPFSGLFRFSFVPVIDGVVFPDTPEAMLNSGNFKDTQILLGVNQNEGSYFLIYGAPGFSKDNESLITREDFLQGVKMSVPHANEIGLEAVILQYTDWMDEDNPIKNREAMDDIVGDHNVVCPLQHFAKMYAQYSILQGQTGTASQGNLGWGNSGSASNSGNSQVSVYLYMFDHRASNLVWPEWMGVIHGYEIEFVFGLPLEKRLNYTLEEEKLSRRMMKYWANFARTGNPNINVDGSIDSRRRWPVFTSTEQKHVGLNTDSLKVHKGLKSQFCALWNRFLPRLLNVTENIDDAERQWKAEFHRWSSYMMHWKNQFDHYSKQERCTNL

For the compound `CCCCCCCCO[C@H]1[C@H](OC(C)=O)[C@@H](Cn2c(=O)c3c(ncn3C)n(C)c2=O)OC(OC(C)=O)[C@@H]1OC(C)=O` (stereo partly specified), the inhibitory constant (Ki) on Cholinesterase [1] came to 5.4 µM. The inhibition at Acetylcholinesterase [2] is 66.5%; against Cholinesterase [3], 75.1%.

In the case of `CCCCCCCCO[C@H]1[C@H](OC(C)=O)[C@@H](Cn2c(=O)c3c(ncn3C)n(C)c2=O)OC(NS(C)(=O)=O)[C@@H]1OC(C)=O` (stereo partly specified), the figures for the inhibition against Acetylcholinesterase [2] and against Cholinesterase [3] were 28.3% and 52.6%, respectively.

In the case of `O=c1c2ccccc2n(CCCCCCn2cc(CO[C@@H]3O[C@H](CO)[C@@H](O)[C@H]3O)nn2)c2ccccc12`, the 50% inhibitory concentration (IC50) on Acetylcholinesterase [4] was determined as 143 µM; at Cholinesterase [7], 6.95 µM. The Ratio IC50 in the data set filed under Homo sapiens was found to be 20.6. For the same compound, the inhibition constant Ki at Cholinesterase [5] turned out to be 1.76 µM. The compound also had a logP in data set [6] of 2.68.

Consider `CCCCCCCC[Se]C[C@H]1OC(OC)[C@H](O)[C@H]1O` (stereo partly specified), for which, in data set [8], the IC50 turned out to be 210 µM.
